A word on the IC50: it is the concentration that inhibits the measured activity by half. Low readings indicate inhibition by little substance, high ones a need for much substance.

The source of these data is patent publication US7868177B2, “Multi-cyclic compounds and method of use” (Amgen Inc., priority 2006, dated 2011).

Where only a bound is given, the exact number is not on record here.

The target in this test is T1, AuroraA-TPX2 (Homo sapiens, UniProt O14965).
T1 construct: 20 μL of AuroraA-TPX2 KD GST for a final volume of 41 μL; GST
T1 sequence (O14965 133-383 limits assumed): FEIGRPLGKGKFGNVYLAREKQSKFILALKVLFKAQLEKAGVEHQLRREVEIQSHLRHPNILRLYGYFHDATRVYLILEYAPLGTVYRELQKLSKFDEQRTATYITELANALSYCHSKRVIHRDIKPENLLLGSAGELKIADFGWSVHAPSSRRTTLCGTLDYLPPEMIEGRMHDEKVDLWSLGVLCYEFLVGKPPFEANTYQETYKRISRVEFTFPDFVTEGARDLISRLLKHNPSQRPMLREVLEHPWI
T1 sequence (Q9ULW0 1-43 partner limits assumed): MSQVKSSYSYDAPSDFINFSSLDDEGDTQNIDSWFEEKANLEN
Nature of the test: AuroraA-TPX2 HTRF kinase assay (Aurora kinase A HTRF assay). In kind it is biochemical. As for the experimental part:
AuroraA-TPX2-Homogeneous Time Resolved Fluorescent (HTRF) Kinase Assay:
The AuroraA HTRF assay begins with AuroraA in the presence of ATP phosphorylating the biotinylated peptide PLK. The reaction incubates for about 120 min. Detection reagents are added to quench the reaction. These agents stop the reaction by diluting out the enzyme and chelating the metals due to the presence of EDTA. After addition, the assay is incubated overnight to allow the detection reagents to equilibrate.
The AuroraA HTRF assay comprises 1 μL of compound in 100% DMSO, 20 μL of ATP and biotinylated PLK, and 20 μL of AuroraA-TPX2 KD GST for a final volume of 41 μL. The final concentration of PLK is about 1 μM. […] Buffer conditions are as follows: 60 mM HEPES pH 7.5, 25 mM NaCl, 10 mM MgCl, 2 mM DTT, 0.05% BSA.
The assay is quenched and stopped with 160 μL of detection reagent. Detection reagents are as follows: Buffer made of 50 mM Tris, pH 7.5, 100 mM NaCl, 3 mM EDTA, 0.05% BSA, 0.1% Tween20. Added to this buffer prior to reading is Steptavidin allophycocyanin (SA-APC) at a final conc in the assay of 0.0005 mg/mL, and europilated anti-phosphoPLK Ab (Eu-anti-PLK) at a final conc of 0.02 nM.
The assay plate is read in either a Discovery or a RubyStar. The eu-anti-PLK is excited at 320 nm and emits at 615 nm to excite the SA-APC which in turn emits at 655 nm. The ratio of SA-APC at 655 nm (excited due to close proximity to the Eu-anti-PLK because of phosphorylation of the peptide) to free Eu-anti-PLK at 615 nm will give substrate phosphorylation.
Background: TR-FRET usually uses a lanthanide donor and a delayed reading to cut background.
Compound `Cn1cc(-c2ccccc2)nc1Nc1ccc(Oc2ncccc2-c2ccnc(N)n2)cc1` [Example 115, 4-(2-((4-((1-methyl-4-phenyl-1H-imidazol-2-yl)amino)phenyl)oxy)-3-pyridinyl)-2-pyrimidinamine] had a half-maximal inhibitory concentration (IC50) of no more than 5 µM. As for `Cc1ccc2nc(Nc3ccc(Oc4ncccc4-c4ccncn4)c(C)c3)oc2c1` [Example 48, 6-methyl-N-(3-methyl-4-((3-(4-pyrimidinyl)-2-pyridinyl)oxy)phenyl)-1,3-benzoxazol-2-amine], the figure is no more than 5 µM; as for `CN1CCCC1CCNc1nccc(-c2cccnc2Oc2ccc(Nc3nc4ccccc4[nH]3)c3ccccc23)n1` (stereo not drawn) [Example 46, N-(4-((3-(2-((2-(1-methyl-2-pyrrolidinyl)ethyl)amino)-4-pyrimidinyl)-2-pyridinyl)oxy)-1-naphthalenyl)-1H-benzimidazol-2-amine], no more than 5 µM.
